In the assay the test system is P388 leukemia ip, CD2F1 mice, survival T/C. Description: NCI In Vivo Anticancer Drug Screen. Data for tumor model P388 Leukemia (intraperitoneal) in CD2F1 (CDF1) mice. The conditions noted are these: endpoint: median survival time, higher = longer survival. Put shortly: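 Mice carrying the transplanted tumor received test compound or vehicle. Survival was recorded in each group, and the value is the treated-group measurement divided by that of the vehicle-treated control group.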

[1] abbreviates: dose: 50.0 mg/kg/injection, schedule: Q01DX009 (ip), vehicle: saline with Tween-80.
The mark [2] stands for this setting: dose: 50.0 mg/kg/injection, schedule: Q01DX005 (ip), vehicle: Klucel (hydroxypropylcellulose) (HPC).
The mark [3] stands for this setting: dose: 100.0 mg/kg/injection, schedule: Q01DX005 (ip), vehicle: Klucel (hydroxypropylcellulose) (HPC).
The mark [4] stands for this setting: dose: 200.0 mg/kg/injection, schedule: Q01DX005 (ip), vehicle: Klucel (hydroxypropylcellulose) (HPC).
Setting [5] is: dose: 25.0 mg/kg/injection, schedule: Q01DX009 (ip), vehicle: Klucel (hydroxypropylcellulose) (HPC).
[6] abbreviates: dose: 50.0 mg/kg/injection, schedule: Q01DX009 (ip), vehicle: Klucel (hydroxypropylcellulose) (HPC).
[7] abbreviates: dose: 50.0 mg/kg/injection, schedule: Q01DX005 (ip), vehicle: saline with Tween-80.
[8] abbreviates: dose: 100.0 mg/kg/injection, schedule: Q04DX003 (ip), vehicle: saline.
Where [9] appears, read: dose: 50.0 mg/kg/injection, schedule: Q01DX005 (ip), vehicle: saline.
The mark [10] stands for this setting: dose: 100.0 mg/kg/injection, schedule: Q01DX009 (ip), vehicle: saline with Tween-80.
[11] abbreviates: dose: 200.0 mg/kg/injection, schedule: Q01DX009 (ip), vehicle: saline with Tween-80.
[12] abbreviates: dose: 60.0 mg/kg/injection, schedule: Q01DX005 (ip), vehicle: saline with Tween-80.
Where [13] appears, read: dose: 120.0 mg/kg/injection, schedule: Q01DX005 (ip), vehicle: saline with Tween-80.
Setting [14] is: dose: 240.0 mg/kg/injection, schedule: Q01DX005 (ip), vehicle: saline with Tween-80.

Several values for one entry are separate records, joined by “and”; a condition that tells them apart may be missing. Identical values can stand only once. Toxic doses and inconclusive results are not listed.

For 23 compounds, T/C results are on record in PubChem BioAssay AID330 (DTP/NCI, 2004).

On to `CCOS(=O)(=O)CCl`, for which the T/C reads like this: (dose: 12.5 mg/kg/injection, schedule: Q01DX009 (ip), vehicle: saline with Tween-80) 106 % of control; (dose: 25.0 mg/kg/injection, schedule: Q01DX009 (ip), vehicle: saline with Tween-80) 100 % of control; under setting [1], 107 % of control and 112 % of control.
As for `CC(C)(C)N1C(=O)NCS1(=O)=O`, the T/C under setting [2] is 100 % of control, the T/C under setting [3] was 100 % of control and the T/C under setting [4] was 115 % of control.
Regarding `CN1C(=O)Cc2ccccc21`, the T/C under setting [5] was 99 % of control; the T/C under setting [6] is 101 % of control; the T/C (dose: 100.0 mg/kg/injection, schedule: Q01DX009 (ip), vehicle: Klucel (hydroxypropylcellulose) (HPC)) was 105 % of control; the T/C (dose: 200.0 mg/kg/injection, schedule: Q01DX009 (ip), vehicle: Klucel (hydroxypropylcellulose) (HPC)) was 99 % of control.
On to `CCN(CC)CCCC(c1ccccc1)c1ccccc1`, for which the T/C reads like this: (dose: 12.5 mg/kg/injection, schedule: Q01DX005 (ip), vehicle: saline with Tween-80) 99 % of control; (dose: 25.0 mg/kg/injection, schedule: Q01DX005 (ip), vehicle: saline with Tween-80) 94 % of control; under setting [7], 99 % of control and 110 % of control.
On to `COc1ccc2c(c1)CCC1=C2C=C[P+]1(C)C`, for which the T/C under setting [1] was 94 % of control.
For the compound `O=C(O)C(=O)O.OO.OO.OO.[Nb]`, the T/C reads like this: (dose: 100.0 mg/kg/injection, schedule: Q01DX009 (ip), vehicle: saline) 123 % of control; under setting [8], 100 % of control.
Take `CCN(CC)CCOC1CC(C)CCC1C(C)C` (stereo not given): the T/C is 111 % of control under setting [9]; 100 % of control (dose: 100.0 mg/kg/injection, schedule: Q01DX005 (ip), vehicle: saline); 100 % of control (dose: 200.0 mg/kg/injection, schedule: Q01DX005 (ip), vehicle: saline).
Regarding `Cc1c[nH]c2nc(C)n(-c3ccccc3F)c(=N)c12`, the T/C is, setting by setting: under setting [2], 99 % of control; under setting [3], 91 % of control.
With `NS(=O)(=O)/C(Br)=C/c1ccccc1`, the T/C is, setting by setting: under setting [1], 90 % of control; under setting [10], 118 % of control; under setting [11], 98 % of control.
Take `CC12CC(c3ccoc3)OC(=O)C1CCC13COC(=O)C1=CCCC32` (stereo not given): the T/C runs as follows: (dose: 0.25 mg/kg/injection, schedule: Q01DX009 (ip), vehicle: Klucel (hydroxypropylcellulose) (HPC)) 96 % of control; (dose: 0.5 mg/kg/injection, schedule: Q01DX009 (ip), vehicle: Klucel (hydroxypropylcellulose) (HPC)) 88 % of control; (dose: 1.0 mg/kg/injection, schedule: Q01DX009 (ip), vehicle: Klucel (hydroxypropylcellulose) (HPC)) 90 % of control; (dose: 2.0 mg/kg/injection, schedule: Q01DX009 (ip), vehicle: Klucel (hydroxypropylcellulose) (HPC)) 114 % of control.
Turning to `CSc1nc(C#N)c(N)s1`, the T/C runs as follows: under setting [12], 101 % of control; under setting [13], 95 % of control; under setting [14], 95 % of control.
Regarding `S=C(Nc1ccc(Cl)cc1)Nc1ncccn1`, the T/C is 98 % of control (dose: 12.5 mg/kg/injection, schedule: Q01DX009 (ip), vehicle: Klucel (hydroxypropylcellulose) (HPC)); 103 % of control under setting [5]; 100 % of control and 97 % of control under setting [6].
Regarding `CC[C@@H](C)[C@H]([C@H](CC(=O)N1CCC[C@@H]1[C@@H](OC)[C@H](C)C(=O)N[C@H](Cc1ccccc1)c1nccs1)OC)N(C)C(=O)[C@H](NC(=O)[C@@H](C(C)C)N(C)C)C(C)C`, the T/C is 155 % of control (dose: 6.5 micrograms/kg/injection, schedule: Q01DX005 (ip), vehicle: saline + alcohol) and 173 % of control (dose: 13.5 micrograms/kg/injection, schedule: Q01DX009 (ip), vehicle: saline + alcohol).
Regarding `Oc1ccc(C(c2cc3c(cc2O)OCO3)N2CCNCC2)cc1` (stereo not given), the T/C by setting is: under setting [12], 114 % of control; under setting [13], 115 % of control; under setting [14], 113 % of control.
For the compound `Cc1cc(C)nc(NCCCNc2nc(C)cc(C)n2)n1`, the T/C runs as follows: under setting [2], 101 % of control; under setting [3], 98 % of control; under setting [4], 100 % of control.
With `CCOC(=O)C(CCc1ccccn1)C(C)=O` (stereo not given), the T/C runs as follows: under setting [12], 94 % of control; under setting [13], 98 % of control; under setting [14], 98 % of control.
Consider `COc1ccc(CCNC2=C(/C=C\C(=O)O)C(=O)CC2)cc1OC`, for which the T/C is 95 % of control (dose: 25.0 mg/kg/injection, schedule: Q01DX001 (ip), vehicle: Klucel (hydroxypropylcellulose) (HPC)); 100 % of control (dose: 50.0 mg/kg/injection, schedule: Q01DX001 (ip), vehicle: Klucel (hydroxypropylcellulose) (HPC)); 87 % of control and 92 % of control (dose: 100.0 mg/kg/injection, schedule: Q01DX001 (ip), vehicle: Klucel (hydroxypropylcellulose) (HPC)).
Take `C=C=CON1CCCCC1`: the T/C is, setting by setting: (dose: 12.5 mg/kg/injection, schedule: Q01DX005 (ip), vehicle: saline) 99 % of control; (dose: 25.0 mg/kg/injection, schedule: Q01DX005 (ip), vehicle: saline) 104 % of control; under setting [9], 100 % of control and 104 % of control.
`CCNC(=S)N/N=C\C=N/NC(=S)NCC`: the T/C reads like this: (dose: 75.0 mg/kg/injection, schedule: Q01DX009 (ip), vehicle: saline with Tween-80) 105 % of control; (dose: 150.0 mg/kg/injection, schedule: Q01DX009 (ip), vehicle: saline with Tween-80) 92 % of control; (dose: 300.0 mg/kg/injection, schedule: Q01DX009 (ip), vehicle: saline with Tween-80) 103 % of control.
With `CCn1c2ccccc2nc2cc3c(cc21)c(Cl)c(=O)c1ccccc13`, the T/C is 108 % of control under setting [1], 104 % of control under setting [10] and 98 % of control under setting [11].
`CCCSC(=S)Nc1nc2ccc(C)cc2s1`: the T/C by setting is: under setting [8], 100 % of control; (dose: 200.0 mg/kg/injection, schedule: Q04DX003 (ip), vehicle: saline) 93 % of control; (dose: 400.0 mg/kg/injection, schedule: Q04DX003 (ip), vehicle: saline) 101 % of control.
On to `O=[N+]([O-])C(Br)(Br)S(=O)(=O)c1ccccc1`, for which the T/C is 97 % of control under setting [7] and 106 % of control (dose: 100.0 mg/kg/injection, schedule: Q01DX005 (ip), vehicle: saline with Tween-80).
On to `CC1=NC(C)(COC(=O)C2(C)NC(C)(CO)CO2)COC1=O` (stereo not given), for which the T/C reads like this: (dose: 60.0 mg/kg/injection, schedule: Q01DX005 (ip), vehicle: saline) 105 % of control; (dose: 120.0 mg/kg/injection, schedule: Q01DX005 (ip), vehicle: saline) 97 % of control; (dose: 240.0 mg/kg/injection, schedule: Q01DX005 (ip), vehicle: saline) 97 % of control.
